Results on 16 compounds are retold here after patent US12637461B2, “Compounds for the activation of AMPK” (PFIZER INC., priority 2022, dated 2026).

The target of the test is T1, human AMPK α2β2γ3 (Homo sapiens, UniProt O43741+P54646+Q9UGI9).
T1 construct: expressed in transfected cells; host or cells: HEK293AD cells, MaxCyte bulk electroporation
Briefly: Primary cellular assay: γ3 associated phospho-Thr172 AMPK detection (custom pAMPK Surefire AlphaLISA) in α2β2γ3 bulk transiently transfected HEK293 cells. The class given is cell-based. To be noted: activation of human AMPK α2β2γ3 (γ3 pThr172 AMPK signal) in transiently transfected HEK293 cells, 20 minutes compound incubation; for Emax: 20 min, read-out: Assay GMean Asy. Max (%); for Emax / Assay GMean Asy. Max (%): geometric mean of the asymptotic max; for EC50: geometric mean EC50, read-out: Assay GMean EC50. On the procedure: Primary Cellular Assay—γ3 Associated Phospho-Thr172 AMPK Detection in α2β2γ3 Bulk Transiently Transfected HEK293 Cells
The cellular potencies of the compounds were evaluated using a custom pAMPK Surefire AlphaLISA designed to assess γ3 associated phospho-Thr172 AMPK and modulation by small molecules in AMPK α2β2γ3 transiently transfected HEK293 cells.
A pAMPK Surefire AlphaLISA (PE-ASLU-PAMPK) assay available through Perkin Elmer was modified to selectively assess γ3 pThr172 AMPK content (as opposed to total pThr172 AMPK) by labeling a γ3 antibody with a CaptSure™ tag and substituting it for the total α1c/α2 AMPK labeled antibodies in the kit. In the modified assay, the overall abundance of γ3 AMPK is recognized by the CaptSure γ3 antibody and the phosphorylated AMPK is recognized by biotinylated pThr172 antibody. Subsequent reactivity with streptavitin donor beads and anti CaptSure conjugated acceptor beads brings the molecules into close proximity. Upon excitation at 680 nm, the donor bead converts ambient oxygen to a more excited singlet state which reacts with the acceptor bead and emits light at 520 to 620 nm. The intensity of the signal is proportional to the level of γ3 associated pThr172 AMPK phosphorylation.
In short, AMPK-α2+β2+γ3 MaxCyte bulk-transfected HEK293AD cells were thawed in growth media (DMEM High glucose+10% FBS) in a collagen-coated T150 flask and the cells were allowed to adhere and grow overnight in a 37° C. incubator. The following day, the cells were harvested and resuspended in plating medium (DMEM Low glucose+10% FBS) at a concentration of 100,000 cells per mL and 50 μL of this cell suspension was added to all wells of a 384-well plate using a Multidrop Combi. The cells were allowed to adhere and grow for 2 days in a 37° C. incubator. On assay day, compounds were diluted in 100% dimethyl sulfoxide (DMSO) in a 11 dose, half log dilution scheme and spotted in the cell plates at 1000× the final concentration. Compound incubations were performed in plating media for 20 minutes. Cells were washed with PBS, lysed and the signal was generated by subsequent additions of RB1 reagent from the kit, 1:1000 CaptSure γ3 labeled antibody in 1× immunoassay buffer, Anti-CaptSure acceptor beads and Streptavitin donor beads at final concentration of […]. The γ3 pThr172 AMPK signal was developed using EnVision™ multilabel reader (Perkin Elmer) using Alphascreen settings. The fluorescence emission was used to calculate the % effect relative to the HPE (30 μM) and ZPE (DMSO). EC50 curves were generated with the ActivityBase software using the XLfit model 205 to determine EC50 and Emax values.
For screening purposes, bulk AMPK-α2+β2+γ3 MaxCyte bulk transfection into HEK293AD cells were generated to support SAR screening as follows.
HEK293AD cells were seeded into 10 flasks at 2.7×10^7 cells per flask. The following day 12 mL of Trypl E dissociation reagent were added to each flask to lift the cells and the cells were then spun at 300×g for 5 minutes. Cells were washed once in MaxCyte EP buffer and then resuspended in MaxCyte EP buffer at 1×10^8 cells per mL. For transfection, 500×10^6 cells in 500 μl MaxCyte EP buffer were placed in a CL1.1 Processing Assembly (electroporation cell) with 1 mg/mL ([…]) of each of the plasmids pcDNA3.1(+)-human AMPK alpha 2, pcDNA3.1(+)-human AMPK beta 2 and pcDNA3.1(+)-human AMPK gamma 3 and the electroporation was carried out on the MaxCyte STX using the HEK293 electroporation protocol. Following electroporation, cells were transferred to a T175 flask containing growth medium (DMEM High glucose+10% FBS) and allowed to recover for 25 minutes, then the cells were resuspended to final volume of 900 mL and distributed into 6XT175 flasks and allowed to adhere and grow overnight in a 37° C. incubator. […]
For orientation: Alpha assays give light when donor and acceptor beads are brought close together.

T1 sequence (P54646 whole entry): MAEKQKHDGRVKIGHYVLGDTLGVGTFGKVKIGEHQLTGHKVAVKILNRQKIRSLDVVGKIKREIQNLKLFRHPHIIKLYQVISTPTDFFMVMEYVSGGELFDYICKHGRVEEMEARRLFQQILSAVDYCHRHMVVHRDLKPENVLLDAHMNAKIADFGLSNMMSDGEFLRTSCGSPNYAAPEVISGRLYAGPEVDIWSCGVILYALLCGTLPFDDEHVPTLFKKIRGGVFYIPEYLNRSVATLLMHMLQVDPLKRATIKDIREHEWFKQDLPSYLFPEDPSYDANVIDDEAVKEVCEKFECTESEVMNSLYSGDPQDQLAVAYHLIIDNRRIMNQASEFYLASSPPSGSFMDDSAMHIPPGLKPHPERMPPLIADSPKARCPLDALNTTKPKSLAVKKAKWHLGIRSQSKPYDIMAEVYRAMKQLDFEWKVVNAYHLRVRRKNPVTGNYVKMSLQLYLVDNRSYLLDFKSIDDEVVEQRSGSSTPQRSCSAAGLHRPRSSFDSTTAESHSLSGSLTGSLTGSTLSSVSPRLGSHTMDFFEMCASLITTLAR
T1 sequence (O43741 whole entry): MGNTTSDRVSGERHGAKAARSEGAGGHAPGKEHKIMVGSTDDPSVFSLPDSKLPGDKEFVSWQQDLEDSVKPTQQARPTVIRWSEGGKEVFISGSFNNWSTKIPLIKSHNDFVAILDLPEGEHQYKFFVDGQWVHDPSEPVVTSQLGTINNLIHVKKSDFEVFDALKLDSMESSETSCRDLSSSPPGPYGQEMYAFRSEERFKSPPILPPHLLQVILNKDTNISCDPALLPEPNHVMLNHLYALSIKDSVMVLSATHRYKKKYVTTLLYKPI
T1 sequence (Q9UGI9 whole entry): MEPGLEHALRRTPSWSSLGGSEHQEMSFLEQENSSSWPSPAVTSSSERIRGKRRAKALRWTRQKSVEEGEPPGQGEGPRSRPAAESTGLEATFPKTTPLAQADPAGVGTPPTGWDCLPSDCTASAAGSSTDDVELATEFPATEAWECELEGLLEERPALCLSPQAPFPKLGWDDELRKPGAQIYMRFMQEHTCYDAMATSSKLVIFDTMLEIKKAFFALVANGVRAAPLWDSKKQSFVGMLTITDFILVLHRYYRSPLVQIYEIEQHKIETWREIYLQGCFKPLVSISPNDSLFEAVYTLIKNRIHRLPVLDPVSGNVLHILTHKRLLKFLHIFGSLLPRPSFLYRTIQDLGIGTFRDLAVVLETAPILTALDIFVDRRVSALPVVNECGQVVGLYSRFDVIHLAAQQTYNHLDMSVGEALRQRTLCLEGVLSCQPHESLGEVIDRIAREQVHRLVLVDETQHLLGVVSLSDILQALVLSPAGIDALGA

As usually defined, the EC50 is the concentration at which the effect is half-maximal. Consider `C[C@]1(c2cccc(Cl)c2F)CN(c2ccc(CO)cn2)C(=O)c2cnc(NC3CN(C(=O)c4cccnn4)C3)c(F)c21` [Example 4, (4R)-4-(3-Chloro-2-fluorophenyl)-5-fluoro-2-[5-(hydroxymethyl)pyridin-2-yl]-4-methyl-6-{[1-(pyridazine-3-carbonyl)azetidin-3-yl]amino}-3,4-dihydro-2,7-naphthyridin-1(2H)-one], for which the Emax turned out to be 96.3% and the EC50 was found to be 66.3 nM.

Turning to `CC1(c2ccc(F)c(Cl)c2F)CN(c2ccc(CO)cn2)C(=O)c2cnc(NC3CN(C(=O)N4C[C@@H]5C[C@H]4CO5)C3)c(F)c21` (single isomer, unassigned) [compound 103], the Emax worked out at 113% and the EC50 is 27.5 nM.

With `Cn1cc(F)c(N2C[C@](C)(c3cccc(Cl)c3F)c3c(cnc(NC4CN(C(=O)[C@H]5C[C@@H]5F)C4)c3F)C2=O)n1` [Example 8, (4R)-4-(3-Chloro-2-fluorophenyl)-5-fluoro-6-({1-[(1R,2S)-2-fluorocyclopropane-1-carbonyl]azetidin-3-yl}amino)-2-(4-fluoro-1-methyl-1H-pyrazol-3-yl)-4-methyl-3,4-dihydro-2,7-naphthyridin-1(2H)-one], the Emax was 58.2% and the EC50 is 63.8 nM.

For `CN(C)C(=O)CN1CCC(Nc2ncc3c(c2F)C(C)(c2cccc(Cl)c2F)CN(c2nn(C)cc2F)C3=O)C1` [compound 110, 2-[(3R)-3-{[5-(3-chloro-2-fluorophenyl)-4-fluoro-7-(4-fluoro-1-methyl-1H-pyrazol-3-yl)-5-methyl-8-oxo-5,6,7,8-tetrahydro-2,7-naphthyridin-3-yl]amino}pyrrolidin-1-yl]-N,N-dimethylacetamide, from P9 (DIAST-2)], the Emax was 63.2% and the EC50 is 266 nM.

For `Cn1cc(F)c(N2C[C@](C)(c3cccc(Cl)c3F)c3c(cnc(NC4CN(C(=O)CC(C)(C)O)C4)c3F)C2=O)n1` [compound 64, (4R)-4-(3-chloro-2-fluorophenyl)-5-fluoro-2-(4-fluoro-1-methyl-1H-pyrazol-3-yl)-6-{[1-(3-hydroxy-3-methylbutanoyl)azetidin-3-yl]amino}-4-methyl-3,4-dihydro-2,7-naphthyridin-1(2H)-one], the Emax was 80.4% and the 50% effective concentration (EC50) is 159 nM.

For the compound `C[C@]1(c2cccc(Cl)c2F)CN(c2ccc(CO)cn2)C(=O)c2cnc(NC3CN(C(=O)N4C[C@@H]5C[C@H]4CO5)C3)c(F)c21` [Example 22, (4R)-4-(3-Chloro-2-fluorophenyl)-5-fluoro-2-[5-(hydroxymethyl)pyridin-2-yl]-4-methyl-6-({1-[(1 S,4S)-2-oxa-5-azabicyclo[2.2.1]heptane-5-carbonyl]azetidin-3-yl}amino)-3,4-dihydro-2,7-naphthyridin-1(2H)-one], the Emax turned out to be 136% and the EC50 stood at 44.7 nM.

Regarding `CC1(c2cccc(Cl)c2F)CN(c2ncccc2F)C(=O)c2cnc(NC3CN(C(=O)N4C[C@@H]5C[C@H]4CO5)C3)nc21` (single isomer, unassigned) [compound 88], the Emax stood at 213% and the EC50 was found to be 71.6 nM.

`Cc1c(F)ccc(C2(C)CN(c3ccc(CO)cn3)C(=O)c3cnc(NC4CN(C(=O)[C@@H]5C[C@@H]5F)C4)c(F)c32)c1F` (single isomer, unassigned) [compound 105]: the Emax amounted to 38.4% and the EC50 came to 19.8 nM.

For the compound `CNc1ccc(N2C[C@](C)(c3cccc(Cl)c3F)c3c(cnc(NC4CN(C(=O)[C@@H]5C[C@@H]5F)C4)c3F)C2=O)nc1` [compound 51, (4R)-4-(3-chloro-2-fluorophenyl)-5-fluoro-6-({1-[(1S,2S)-2-fluorocyclopropane-1-carbonyl]azetidin-3-yl}amino)-4-methyl-2-[5-(methylamino)pyridin-2-yl]-3,4-dihydro-2,7-naphthyridin-1(2H)-one], the Emax was 63.2% and the 50% effective concentration (EC50) came out at 49.1 nM.

Consider `CC1(c2cccc(Cl)c2F)CN(c2ncccc2F)C(=O)c2cnc(NC3CN(C(=O)C4(O)CC4(C)C)C3)nc21` (single isomer, unassigned) [Example 28, 8-(3-Chloro-2-fluorophenyl)-6-(3-fluoropyridin-2-yl)-2-{[1-(1-hydroxy-2,2-dimethylcyclopropane-1-carbonyl)azetidin-3-yl]amino}-8-methyl-7,8-dihydropyrido[4,3-d]pyrimidin-5(6H)-one], for which the EC50 is 571 nM and the “Assay GMean Asy. Max (%)” value is on record as 98.9%.

With `COCC(C)(O)C(=O)N1CC(Nc2ncc3c(c2F)C(C)(c2cccc(Cl)c2F)CN(c2nn(C)cc2F)C3=O)C1` (single isomer, unassigned) [compound 46], the Emax stood at 111% and the EC50 came to 86.1 nM.

For the compound `Cn1cc(C(=O)N2CC(Nc3ncc4c(c3F)[C@@](C)(c3cccc(Cl)c3F)CN(c3ccc(CO)cn3)C4=O)C2)nn1` [compound 60, (4R)-4-(3-chloro-2-fluorophenyl)-5-fluoro-2-[5-(hydroxymethyl)pyridin-2-yl]-4-methyl-6-{[1-(1-methyl-1H-1,2,3-triazole-4-carbonyl)azetidin-3-yl]amino}-3,4-dihydro-2,7-naphthyridin-1(2H)-one], the Emax is 48.6% and the concentration giving a half-maximal response (EC50) amounted to 53.5 nM.

Take `C[C@]1(c2cccc(Cl)c2F)CN(c2ncccc2F)C(=O)c2cnc(NC3CN(C(=O)[C@@H]4C[C@@H]4F)C3)c(F)c21` [Example 6, (4R)-4-(3-chloro-2-fluorophenyl)-5-fluoro-6-({1-[(1S,2S)-2-fluorocyclopropane-1-carbonyl]azetidin-3-yl}amino)-2-(3-fluoropyridin-2-yl)-4-methyl-3,4-dihydro-2,7-naphthyridin-1(2H)-one]: the Emax amounted to 58% and the EC50 is 22.2 nM.

Consider `CC(C)NCC(=O)N1CC(Nc2ncc3c(c2F)[C@@](C)(c2cccc(Cl)c2F)CN(c2nn(C)cc2F)C3=O)C1` [Example 13, (4R)-4-(3-Chloro-2-fluorophenyl)-5-fluoro-2-(4-fluoro-1-methyl-1H-pyrazol-3-yl)-4-methyl-6-[(1-{[(propan-2-γ1)amino]acetyl}azetidin-3-γ1)amino]-3,4-dihydro-2,7-naphthyridin-1(2H)-one], for which the EC50 came out at 108 nM and the “Assay GMean Asy. Max (%)” value is 46.2%.

Regarding `CNC(=O)N1CC(Nc2ncc3c(c2F)[C@@](C)(c2cccc(Cl)c2F)CN(c2ncccc2F)C3=O)C1` [Example 20, 3-{[(5R)-5-(3-Chloro-2-fluorophenyl)-4-fluoro-7-(3-fluoropyridin-2-yl)-5-methyl-8-oxo-5,6,7,8-tetrahydro-2,7-naphthyridin-3-yl]amino}-N-methylazetidine-1-carboxamide], the Emax came out at 43.1% and the EC50 is 23.9 nM.

For `C[C@]1(c2cccc(Cl)c2F)CN(c2ccc([C@H]3COCCN3)cn2)C(=O)c2cnc(NC3CN(C(=O)c4cccnn4)C3)c(F)c21` (single isomer, unassigned) [Example 16], the Emax worked out at 75.4% and the EC50 turned out to be 759 nM.
